Assay results taken from patent publication US20190175766A1, “STABILIZED CROSSLINKED NANOBUBBLES FOR DIAGNOSTIC AND THERAPEUTIC APPLICATIONS” (CASE WESTERN RESERVE UNIVERSITY, priority 2016, published 2019).

Legend:
[1] = system: LS174T cell line; test: Cell toxicity test (WST-1); format: cell-based, human
Method: LS174-T human colorectal adenocarcinoma cells (ATCC, Manassas, Va.) were cultured in complete MEM medium (10% fetal bovine serum, 1% penicillin-streptomycin; Invitrogen, Carlsbad, Calif.) and placed in a humidified atmosphere at 37° C. and 5% CO2. Cells were passaged until they were 90% confluent, then detached with 0.25% trypsin-EDTA (Invitrogen, Carlsbad, Calif.).
One day prior to the treatment, cells were passaged at confluence and plated in flat bottom, clear, cell culture treated 96-well plates (Falcon, Franklin Lakes, N.J.) using a cell density of 2.5×10^4 cells/ml, 100 ul for each well overnight. After 24 h of incubation, the surface medium were aspirated carefully and cells were treated for 3 h as following groups: • 1 No treat Incomplete MEM medium were added. • 2. Dox 1 μg/ml Doxorubicin in incomplete MEM medium were added. • 3. Dox-NB 2000 times diluted original Dox-NB in incomplete MEM medium were added. • 4. […]
Plate wells were filled with relevant treatment medium, sealed with Parafilm® M (Fisher Scientific; Pittsburgh, Pa.), then inverted the plate to ensure the cells contact with Dox-NB for 20 min. […] After that, 1:10 diluted solution of WST-1 reagent ( ) replaced the medium and incubated for 1 h and then the plate was scanned with a TECAN plate reader (infinite M200, San Jose, Calif.) at 450 nm.

[2] = system: LS174-T cells; test: Measurement of intracellular drug uptake; format: cell-based, human; conditions: with and without TUS
Method: LS174-T cells were grown in a 12-well cell culture plate at a cell concentration of 2.5×10^4 cells/ml one day before the treatment. The treatment groups were the same as cell toxicity test above. After 2 h treatment in incubator, the drugs were aspirated and washed with sterile PBS 3 times. The attached cells were fixed with 3% formaldehyde solution for 10 min. After 3 times wash with PBS, the cells of different treatment groups were imaged at 5× and 20× on the Zeiss Axio Observer Z1 motorized FL microscope with the same parameter and scanned zones. Average Dox fluorescence of cells in different treatment groups was calculated by ImageJ.

COc1cccc2c1C(=O)c1c(O)c3c(c(O)c1C2=O)C[C@@](O)(C(=O)CO)C[C@@H]3O[C@H]1C[C@H](N)[C@H](O)[C@H](C)O1 [Dox, Doxorubicin]
Fluorescence value (cell viability test) ([1]; plus therapeutic ultrasound (TUS) 3 MHz, 2 W/cm2, 1 min): 0.28 ± 0.06
Fluorescence value (cell viability test) ([1]; without TUS, Dox 1 μg/ml, Dox-NB 2000 times diluted): 0.36 ± 0.10
location of Dox in treated cells [2]: mainly located in nuclei
